Measured values reported in patent publication US5374626A, “5'-alkylphosphonylnucleosides as antivirals” (priority 1989, dated 1994).
Like-named read-outs stand apart in the source and are kept apart here.

System: Influenza virus
Conditions: mice, ninth day

**Q.** Which results are given for `NC(=O)c1ncn([C@@H]2O[C@H](CO)[C@@H](O)[C@H]2O)n1` [RIBAVIRIN]?
**A.** % PROTECTION (LUNG LESIONS) TEST (1.6 mg/kg (31 mcg/mouse) I.N., Wilcoxon * p < 0.01, ° p < 0.025): 15%; % PROTECTION (LUNG LESIONS) TEST (100 mg/kg (2000 mcg/mouse) P.OS, * p < 0.01 Wilcoxon): 27%
